# Measured values reported in US12005056B2, “Centrally-active ghrelin agonist and medical uses thereof” (Helsinn Healthcare SA, priority 2018, dated 2024).
# Entries after “also recorded” stand apart in the source; their conditions may differ. Read-outs that look alike come from different tables or passages of the source.
# Legend:
# [1] = Protocol: The stability of Compound A was followed by HPLC analysis. […] Additionally a stability study was performed over 3 years on industrial batch of dried material.
# human GHSR1 receptor = target: T1, human GHSR1 receptor (Homo sapiens, UniProt Q92847); test: [125I]Ghrelin binding assay on membranes from BHK cells; conditions: 1 nM [125I]Ghrelin, BHK cell membranes
# T1 construct: expressed in transfected cells; host or cells: BHK cells (membrane preparation)
# Protocol: In additional binding study, compound A was dissolved in DMSO and diluted with water in different range of concentrations. Membrane protein prepared from BHK cells stably expressing human GHSR1 receptor were used for binding assay. The membrane was diluted in assay buffer to yield 20 μg/well in 120 μl. The binding assay was set up in 96 well plate as following: 120 μl [^125I]Ghrelin (final concentration 1 nM) and 15 μl compound A (10×) diluted in the assay buffer. The reaction mixture was incubated at room temperature for 30 minutes before terminating by quick filtration onto GF/B filtration plate pre-soaked in 0.3% PEI using cell harvester (Perkin Elmer). The filter was washed three times and dried at 37° overnight. The radioactivity bound to filter membrane was measured with MicroBeta Trilux (Perkin Elmer).
# [2] = test system: cisplatin-treated Wistar rats; test: Cisplatin study (body weight, food intake, von Frey testing); assay type: in vivo; conditions: for Body Weight / Allodynia: Cisplatin 0.5 mg/kg (i.p.) for three days
# Protocol: Compound A was made as a suspension in 0.5% carboxymethylcellulose solution in dosing volumes of 1 and 10 mL/kg for rats and mice respectively and dosed orally at 3, 10 or 30 mg/kg. […] Bortezomib was prepared in 10% Tween 80, 10% EtOH 100% and 80% saline solution and injected i.v. (1 mL/kg) at 0.2 mg/kg.
# Fifty male Wistar rats weighing 250-300 g at start of experiment were randomly divided into 5 groups of 10 rats each. Group 1 received daily Compound A vehicle (p.o.) for 6 days and cisplatin vehicle (i.p.) for 3 days. Group 2 received Compound A vehicle (p.o) and 0.5 mg/kg cisplatin (i.p.) for 3 days followed by Compound A vehicle for 3 additional days. Group 3 received daily 3 mg/kg Compound A (p.o) and 0.5 mg/kg cisplatin (i.p.) for 3 days followed by 3 mg/kg Compound A for an additional 3 days. Group 4 received 10 mg/kg Compound A (p.o) and 0.5 mg/kg cisplatin (i.p.) for 3 days followed by 10 mg/kg Compound A for an additional 3 days. Group 5 received daily 30 mg/kg Compound A (p.o.) and 0.5 mg/kg cisplatin (i.p.) for 3 days followed by 30 mg/kg Compound A for an additional 3 days. In each case, cisplatin or cisplatin vehicle was dosed 30 min after Compound A or Compound A vehicle, which was dosed 1 hour prior to von Frey filament testing. Individual body weights and 24 h food intake were measured daily from just prior to initiation of dosing.
# In the cisplatin study, rats were individually housed and acclimated to handling and to the Von Frey testing apparatus for several days prior to start of the experiment. Baseline measurements were obtained prior to dosing. Behavioral testing was conducted following procedures previously described (28). Each filament was tested 5 times and the test continued until 3 withdrawal responses to a particular filament were recorded.
# [3] = rat, in vivo
# [4] = test system: bortezomib-treated Wistar rats; test: Bortezomib study, therapeutic paradigm; conditions: for Allodynia / Body Weight / DRG/nerve pathology / IENFD / NCS: Bortezomib Therapeutic setting, 0.2 mg/kg (i.v.) 3 times/week for 8 weeks
# [5] = crude wet material, batch #01, 2-8° C., t = 0
# [6] = crude wet material, batch #01, 2-8° C., t = 8 days
# [7] = crude wet material, batch #01, 2-8° C., t = 30 days
# [8] = crude wet material, batch #02, rt under air, t = 0
# [9] = crude wet material, batch #02, rt under air, t = 24 days
# [10] = during drying at 60° C., t = 74 hours
# [11] = therapeutic setting, all doses, monohydrochloride salt
# T1 sequence (Q92847 whole entry): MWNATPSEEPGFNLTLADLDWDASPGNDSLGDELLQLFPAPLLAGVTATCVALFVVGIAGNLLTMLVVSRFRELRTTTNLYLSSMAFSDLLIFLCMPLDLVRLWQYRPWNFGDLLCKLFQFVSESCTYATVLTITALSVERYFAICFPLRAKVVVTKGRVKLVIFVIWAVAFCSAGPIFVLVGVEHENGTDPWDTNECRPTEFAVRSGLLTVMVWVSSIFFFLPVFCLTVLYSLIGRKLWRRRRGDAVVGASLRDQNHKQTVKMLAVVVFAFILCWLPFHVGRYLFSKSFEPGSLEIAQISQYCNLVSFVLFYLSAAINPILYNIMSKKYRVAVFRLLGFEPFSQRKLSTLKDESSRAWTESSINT
substance,measurement,setting,value
"3-(1-(2,3-dichloro-4-methoxyphenyl) ethyl)-1-methyl-1-(1,3,3-trimethylpiperidin-4-yl)urea monohydrochloride salt [Compound A]","Compound A, HPLC results",[1]; [5],99.60%
same,"Impurity RRT 0.97, HPLC results",[1]; [5],0.40%
same,"Compound A, HPLC results",[1]; [6],99.70%
same,"Impurity RRT 0.97, HPLC results",[1]; [6],0.29%
same,"Compound A, HPLC results",[1]; [7],99.75%
same,"Impurity RRT 0.97, HPLC results",[1]; [7],0.25%
same,"Compound A, HPLC results",[1]; [8],99.74%
same,"Impurity RRT 0.97, HPLC results",[1]; [8],0.24%
same,"Compound A, HPLC results",[1]; [9],99.73%
same,"Impurity RRT 0.97, HPLC results",[1]; [9],0.27%
same,"Compound A, HPLC results","[1]; during drying at 60° C., t = 0",99.83%
same,"Impurity RRT 0.97, HPLC results","[1]; during drying at 60° C., t = 0",0.17%
same,"Compound A, HPLC results",[1]; [10],99.78%
same,"Impurity RRT 0.97, HPLC results",[1]; [10],0.17%
same,Ki,human GHSR1 receptor,1.42 ± 0.35 nM
same,Body Weight,[2]; Compound A dose 3,+
same,Allodynia,[2]; Compound A dose 10,+
same,Body Weight,[2]; Compound A dose 10,+
same,Allodynia,[2]; Compound A dose 30,+
same,Body Weight,[2]; Compound A dose 30,+
same,cisplatin-induced mechanical hyperalgesia,"[2]; Compound A 3 mg/kg p.o., monohydrochloride salt, 3 mg/kg",no significant effect and not
same,paw withdrawal thresholds compared to vehicle-treated rats,"[2]; Compound A 30 mg/kg, Days 3 thru 5",significantly increased
same,overall food intake compared to cisplatin alone,"[2]; Compound A 3, 10 and 30 mg/kg p.o.",increased
same,body weight compared to cisplatin alone,"[2]; Compound A 3, 10 and 30 mg/kg p.o., monohydrochloride salt",increased; also recorded: improved
same,food intake compared to cisplatin alone,[2]; Compound A 10 and 30 mg/kg p.o. (FIG. 1B),improved
same,cisplatin-induced mechanical hyperalgesia,"[2]; Compound A 10 and 30 mg/kg p.o., monohydrochloride salt",significantly reduced; also recorded: significantly improved
same,AUClast,"[3]; iv, 3 mg/kg",937 ± 145 ng·h/mL
same,C0083/Cmax,"[3]; iv, 3 mg/kg",682 ± 58.5 ng/mL
same,CL (clearance),"[3]; iv, 3 mg/kg",52.0 ± 9.22 mL/min/kg
same,Vss (volume distribution at steady state),"[3]; iv, 3 mg/kg",6.6 ± 0.491 L/kg
same,"t1/2, z","[3]; iv, 3 mg/kg",1.92 ± 0.121 h
same,AUClast,"[3]; iv, 10 mg/kg",3540 ± 765 ng·h/mL
same,AUClast,"[3]; po, 3 mg/kg",780 ± 155 ng·h/mL
same,C0083/Cmax,"[3]; po, 3 mg/kg",181 ± 43.7 ng/mL
same,F (bioavailability),"[3]; po, 3 mg/kg",83 ± 21%
same,"t1/2, z","[3]; po, 3 mg/kg",2.56 ± 0.177 h
same,tmax,"[3]; po, 3 mg/kg",1.67 ± 0.577 h
same,AUClast,"[3]; po, 10 mg/kg",3400 ± 1010 ng·h/mL
same,tmax,"[3]; po, 10 mg/kg",1.67 ± 2.02 h
same,AUClast,"[3]; po, 30 mg/kg",12300 ± 1400 ng·h/mL
same,C0083/Cmax,"[3]; po, 30 mg/kg",1430 ± 208 ng/mL
same,F (bioavailability),"[3]; po, 30 mg/kg",116 ± 28%
same,bioavailability,"[3]; po, 30 mg/kg",exceeded 80%
same,"t1/2, z","[3]; po, 30 mg/kg",3.26 ± 0.170 h
same,tmax,"[3]; po, 30 mg/kg",1.67 ± 0.577 h
same,Allodynia,[4]; Compound A dose 3,+
same,Body Weight,[4]; Compound A dose 3,+/−
same,DRG/nerve pathology,[4]; Compound A dose 3,−
same,IENFD,[4]; Compound A dose 3,−
same,NCS,[4]; Compound A dose 3,+/−
same,Allodynia,[4]; Compound A dose 10,+
same,Body Weight,[4]; Compound A dose 10,+/−
same,DRG/nerve pathology,[4]; Compound A dose 10,+/−
same,IENFD,[4]; Compound A dose 10,−
same,NCS,[4]; Compound A dose 10,+/−
same,Allodynia,[4]; Compound A dose 30,+
same,Body Weight,[4]; Compound A dose 30,+/−
same,DRG/nerve pathology,[4]; Compound A dose 30,+/−
same,IENFD,[4]; Compound A dose 30,−
same,NCS,[4]; Compound A dose 30,−
same,protective effects on DRG/nerve pathology,[4]; therapeutic setting,not present
same,allodynia vs CTRL (mechanical threshold),"[4]; therapeutic setting, after 5 weeks and at the end of treatment, all doses",protected
same,caudal NCV and potential amplitude vs CTRL,[4]; [11],statistically significant reduction
same,digital NCV vs CTRL,[4]; [11],statistically significant reduction only the animals treated with bortezomib alone; also recorded: Only the animals treated with bortezomib alone showed a significant reduction
same,body weight vs. CTRL and bortezomib groups,"[4]; therapeutic setting, end of treatment, Compound A 30",significant increase in body weight
same,body weight vs. CTRL and bortezomib groups,"[4]; therapeutic setting, following 10 days co-treatment",significant increase of body weight
same,digital potential amplitude vs CTRL,"[4]; therapeutic setting, highest dose of Compound A",reduction in potential amplitude
